Measured values reported in PMC6397180 (Scientific Reports, 2019).
Where “and” joins values, the source holds several entries; their conditions need not be identical. Equal entries are not always repeated.

Assays:
[1] = tested on: PMA-differentiated THP-1 cells; assay: Confocal microscopy of labeled CPP uptake; format: cell-based; conditions: 1 μM peptide, 37 °C, 30 minutes, trypsin to strip surface-bound CPP, fluorescence 488 nm
[2] = tested on: 293T cells; assay: Flow cytometry of labeled CPP uptake; format: cell-based, human; conditions: for effect of soluble heparin on CPP uptake: 293T cells incubated with labeled CPPs and increasing concentrations of soluble heparin; for decrease of CPP uptake at 4 °C compared with 37 °C: 2 μM CPP, 4 °C (10 min pre-incubation) vs 37 °C
Method: 293T cells were plated in 12-well plates at 2.5 × 10^5 cells per well, to achieve approximately 70% - 80% confluence by the next day. Thirty minutes before the experiment, cell medium was changed to low-serum DMEM with 1% Pen-Strep. Cells were washed once with PBS, treated with Tat-CPP in low-serum DMEM, and placed in either a tissue-culture incubator (37 °C/5% CO2) or a refrigerator (4 °C)(samples treated at 4 °C were pre-incubated in refrigerator for 10 minutes before CPP treatment). Cells were gently washed twice with PBS (w/10%FBS), then treated with 300 µl of pre-warmed 0.05% trypsin for 5 min, to detach cells and enzymatically digest surface-bound Tat-CPP. Cells were resuspended in 1 ml PBS (with 10% FBS and 2 mM EDTA), and peptide uptake assessed by flow cytometry (FACScalibur). Live cells were gated using forward-scatter and side-scatter ratio, then interrogated >10,000 live-cell events each for fluorescence signal emission at 488 nm. Data was analyzed using FlowJo software v9.3.3 (FlowJo LLC). To adjust for differences in instrument settings and voltage adjustments between experiments we transformed the raw MFI values within each experiment into values proportional to the greatest MFI reading in that particular experiment. Heparinase enzymes were used to pre-treat cells by combination of Heparinase I and III at 17 IU and 1 IU, respectively, per mL of plain DMEM. Cells were treated with enzymes for 2 h in an 37 °C, then washed with PBS and exposed to CPPs as above.

[3] = tested on: C20 microglial cells; assay: TNFα protein in supernatants of Tat-treated microglia (Luminex cytokine detection assay); format: cell-based, human; conditions: C20 microglia exposed 24 h to equivalent inputs of Tat-containing HeLa media
Method: (§1) C20 microglia were exposed for 24 h, to equivalent inputs of HeLa cell media containing Tat protein (Tat-B*, Tat-B* R57S, Tat-C or Tat-C S57R or empty vector) as described above for cytokine expression. As a control, spent media of HeLa cells transfected with an empty pcDNA 3.1 construct was used. Approximately 50, 000 cells containing a mixture of human fetal neurons and glia plated on 35 mm MatTek plates were treated with 200 µl of spent media from Tat-exposed microglial cultures for 30 h.

[4] = tested on: h-Hu_C20 human microglial cells; assay: qRT-PCR of cytokine gene expression in C20 cells exposed to Tat; format: cell-based; conditions: equivalent levels of Tat proteins applied; compared with position 57 variant of the same clade
Method: We transfected 2 × 10^6 HeLa cells with pEGFP, pcDNA 3.1 and the plasmids expressing the four Tat variants. At 24 hours post transfection, media were collected and Tat ELISA performed to determine the amount of Tat present. C20 microglia (2 × 10^6) were incubated with equal amounts of Tat media for 24 h. PMA (5 ng) or LPS (5 ng) were also included in separate wells as controls. C20 cells were washed with PBS, treated with trypsin, pelleted by centrifugation at 500 × g for 10 minutes, and total cell RNA isolated using an RNeasy Kit (Qiagen). RNA was reverse transcribed in a first-strand cDNA synthesis reaction (GoScript, Promega), using oligo dT primers. The cDNA was diluted to 100 ng per 3 μL in each reaction well, and combined with 2x Taqman Gene Expression Master Mix (ThermoFisher) and Taqman Gene Expression Assay primer-probes: GAPDH (Hs02758991_g1), IL6 (Hs00985639_m1), IL8 (Hs00174103_m1), IL-1β (Hs00174097_m1) or CXCL1 (Hs00236937_m1). Each sample was assayed in triplicate on a 384-well plate, and run under standard qRT-PCR cycling conditions on a 7900HT instrument (ABI).

[5] = tested on: primary human neuron-astrocyte co-cultures; assay: Treatment of neurons with spent media from Tat-exposed microglia; format: cell-based; conditions: co-cultures treated 30 h with 200 µl spent media from Tat-exposed microglia, neurotubulin staining
Method: as §1
For the purpose of imaging of neurons and quantifying axonal/dendritic lengths, neurons treated as above were fixed with 4% PFA for 15 min and washed with 1x PBS. Cells were permeabilized with 0.1% Triton X-100 for 3 minutes and washed as before. Non-specific sites were blocked with 1X SBS buffer (50 mM EDTA, 0.01% Fish Gelatin, 0.1 g BSA, 1% Horse serum in PBS) for 1 h at room temperature and the cells washed. Cells were stained with anti-neurotubulin antibodies, anti-GFAP antibodies and DAPI to stain neurons, glial cells and nuclei respectively. Neuronal images were captured using a Leica Confocal TCS SP5 microscope (Leica Microsystems, Bannockburn, IL). Axonal/dendritic lengths were quantified using Volocity 6.3 software.

[6] = tested on: interaction of Tat with HSPGs on TZM-bl cells; assay: Inhibition of transcellular transactivation by HSPG competitive antagonists; format: cell-based, human; conditions: TZM-bl cells exposed to Tat-B-WT produced in HeLa cells
Method: HeLa cells were seeded in 6-well plates at 7.5 × 10^5 cells per well and transfected with 2.5 μg of Tat expression plasmid DNA (Lipofectamine 3000, Invitrogen). After 6 h, the media was replaced with DMEM/10% FBS. Next day, TZM-bl reporter cells were seeded in a 24-well plate, at 1.5 × 10^5 cells per well. Similarly, C20 microglial cells were seeded in a 12-well plate, at 3 × 10^5 cells per well. After allowing 5–6 h for cell attachment, supernatant from the tat-transfected HeLa cells was collected, which was centrifuged at 500 × g for 10 minutes to remove debris and dead cells. Importantly, at this step and all others involving handling of Tat-containing media, siliconized tubes and tips were used to minimize the adsorption of Tat to surfaces. Tat-transfected HeLa supernatants were used to replace either TZM-bl media (400 μL) or C20 media (800 μL), and the cells incubated for 12 h (C20) or 24 h (TZM-bl).
TZM-bl cell lysates were harvested and stored at −80 °C until luciferase activity was measured. Frozen TZM-bl cell lysates were thawed on ice for 30 minutes, centrifuged at 14,000 × g for 2 minutes, and the protein concentration in the supernatants measured by BCA protein assay. […] The side of the plate was gently tapped and each sample was immediately assayed for luciferase activity using a plate-reader, measuring each sample in Relative Light Units (RLU) (PerkinElmer VICTOR-2).

[7] = tested on: LTR-driven luciferase reporter gene in TZM-bl cells; format: cell-based, human

Molecule: GRKKRRQRRR [CPP-R57, Tat CPP decapeptide (residues 48–57) of HIV-1B, N-terminal HiLyte Fluor 488 tag]
- internalization of labeled peptide (confocal microscopy) [1]: higher amount of labeled peptide
- effect of soluble heparin on CPP uptake [2]: dose-dependent inhibition of uptake
- decrease of CPP uptake at 4 °C compared with 37 °C ([2]; 293T cells, flow cytometry): ~ 75%
- CPP-R57 uptake relative to CPP-S57 ([2]; 293T cells, flow cytometry, 2 μM peptide, n = 4): 3–4 fold

Molecule: Tat-B*: Tat-B variant with R7N and K12N mutations and C-terminal myc tag
- TNFα protein levels in supernatants of Tat-treated microglia [3]: 19.2 ng/mL
- inflammatory cytokine gene transcripts IL-6, IL-8, IL-1β and CXCL1 [4]: higher levels
- appearance of neuronal processes (dendrites and axons) [5]: shorter and thinner

Molecule: heparin
- concentration sufficient to diminish transcellular transactivation of extracellular Tat to near background levels [6]: 10 µg/mL

Molecule: GRKKRRQRRS [CPP-S57, Tat CPP decapeptide (residues 48–57) of HIV-1C, N-terminal HiLyte Fluor 488 tag]
- uptake in dose response ([2]; 293T and THP1 cells, increasing concentrations of CPP, flow cytometry): reduced uptake
- effect of soluble heparin on CPP uptake [2]: dose-dependent inhibition of uptake
- decrease of CPP uptake at 4 °C compared with 37 °C ([2]; 293T cells, flow cytometry): 50% and ~ 50%

Molecule: Cc1ccc(C(=O)Nc2ccc(S(=O)(=O)O)c3cc(S(=O)(=O)O)cc(S(=O)(=O)O)c23)cc1NC(=O)c1cccc(NC(=O)Nc2cccc(C(=O)Nc3cc(C(=O)Nc4ccc(S(=O)(=O)O)c5cc(S(=O)(=O)O)cc(S(=O)(=O)O)c45)ccc3C)c2)c1 [suramin]
- concentration sufficient to diminish transcellular transactivation of extracellular Tat to near background levels [6]: 100 µg/mL

B1: Tat-B-49AAA51: Tat-B with triple alanine substitution in residues 49-RKK-51 (protein, UniProt P04608 1-86, looked up, variant R49A K50A K51A)
Protein Tat: MEPVDPRLEPWKHPGSQPKTACTNCYCKKCCFHCQVCFITKALGISYGAAARRQRRRAHQNSQTHQASLSKQPTSQPRGDPTGPKE
- transcriptional activity relative to TatB-WT [7]: 10%
- decrease of luciferase output upon direct transfection ([7]; TZM-bl cells directly transfected, relative to Tat-B-WT): approximately 90%
